Reference: patent US10195204B2, “Methods of treating hemoglobinopathies” (DUKE UNIVERSITY, priority 2011, dated 2019)
Like-named read-outs stand apart in the source and are kept apart here.

Key:
[1] = system: AA RBC membrane ghost phosphopeptides; assay: Label-free quantitative phosphoproteomic analysis of normal (AA) RBC membrane ghosts; type: cell-based, human
Procedure: (§1) Ghosted RBCs were spun at 14,000 rpm for 15 min at 4° C. to pellet membranes. Membrane pellets were washed with 1 mL 50 mM ammonium bicarbonate (pH 8.0) with vortexing and were then spun at 14,000 rpm for 30 min at 4° C. The supernatant was then removed and 500 μL of 50 mM ammonium bicarbonate with μL 0.2% acid-labile surfactant (ALS-1) in 50 mM ammonium bicarbonate (pH 8.0) was added. Samples were subjected to probe sonication three-times for 5 sec with cooling on ice between and insoluble material was cleared by centrifugation at 14,000 rpm for 30 mins at 4° C. Samples were normalized to approximately 2 μg/μl following a micro-Bradford assay (Pierce Bioscience), and were reduced with a final concentration of 10 mM dithiothreitol at 80° C. for 20 min. Samples were then alkylated with a final concentration of 20 mM iodoacetamide at room temperature for 45 min and trypsin was added to a final ratio of 1-to-50 (w/w) enzyme-to-protein and allowed to digest at 37° C. for 18 hr. To remove ALS-1, samples were acidified to pH 2.0 with neat TFA, incubated at 60° C. for 2 hrs and spun at 14,000 rpm to remove hydrolyzed ALS-1. Samples were either subjected directly to LC-MS analysis or subjected to a TiO2 based phosphopeptide enriched protocol.
To enrich for phosphorylated peptides prior to LC-MS analysis, either 1,125 μg and 970 μg of total digested protein from RBC ghosts co-incubated with recombinant active ERK2 experiments and experiments using epinephrine-treated cells, respectively, were brought to near dryness using vacuum centrifugation and then resuspended in 200 μL of 80% acetonitrile, 1% TFA, 50 mg/ml MassPrep Enhancer (pH 2.5) (Waters Corp. Milford, Mass.). Samples were loaded onto an in-house packed TiO2 spin column (Protea Biosciences) with a 562 μg or 485 μg binding capacity for active ERK2 treated or epinephrine treated experiments, respectively. Samples were washed twice with 200 μL 80% acetonitrile, 1% TFA, 50 mg/ml MassPrep Enhancer (pH 2.5) followed by two washes with 200 μL 80% acetonitrile, 1% TFA (pH 2.5). Retained peptides were eluted twice with 100 μL 20% acetonitrile, 5% aqueous ammonia (pH 10.0), acidified to pH 3 with neat formic acid and then brought to dryness using vacuum centrifugation. […]
MS data from each phosphopeptide enriched sample was acquired on a Thermo LTQ-Orbitrap XL mass spectrometer operating in positive-ion mode with an electrospray voltage of 2.0 kV with real-time lockmass correction on ambiant polycyclodimethylsiloxane (m/z 445.120025) enabled. […] Each sample was analyzed four-times, one of which was used for additional qualitative identifications only and was not included in the quantitative analysis, with product ions above a threshold of 500 counts were acquired for the top 5 most intense ions in the linear ion trap. […]

[2] = system: SS RBC membrane ghost phosphopeptides; assay: Label-free quantitative phosphoproteomic analysis of SS RBC membrane ghosts; type: cell-based, human
Procedure: as §1
To enrich for phosphorylated peptides prior to LC-MS analysis, either 1,125 μg and 970 μg of total digested protein from RBC ghosts co-incubated with recombinant active ERK2 experiments and experiments using epinephrine-treated cells, respectively, were brought to near dryness using vacuum centrifugation and then resuspended in 200 μL of 80% acetonitrile, 1% TFA, 50 mg/ml MassPrep Enhancer (pH 2.5) (Waters Corp. Milford, Mass.). Samples were loaded onto an in-house packed TiO2 spin column (Protea Biosciences) with a 562 μg or 485 μg binding capacity for active ERK2 treated or epinephrine treated experiments, respectively. Samples were washed twice with 200 μL 80% acetonitrile, 1% TFA, 50 mg/ml MassPrep Enhancer (pH 2.5) followed by two washes with 200 μL 80% acetonitrile, 1% TFA (pH 2.5). Retained peptides were eluted twice with 100 μL 20% acetonitrile, 5% aqueous ammonia (pH 10.0), acidified to pH 3 with neat formic acid and then brought to dryness using vacuum centrifugation. Prior to LC-MS analysis, each sample was resuspended in 20 μL 2% acetonitrile, 0.1% TFA, 25 mM citric acid (pH 2.5).
Chromatographic separation of phosphopeptide enriched or non-enriched samples was performed on a Waters NanoAquity UPLC equipped with a 1.7 μm BEH130 C1875 μm I.D.×250 mm reversed-phase column. The mobile phase consisted of (A) 0.1% formic acid in water and (B) 0.1% formic acid in acetonitrile. Five μL injections of each sample were trapped for 5 min on a 5 μm Symmetry C18 180 μm I.D.×20 mm column at 20 μl/min in 99.9% A. The analytical column was then switched in-line and the mobile phase was held for 5 min at 5% B before applying a linear elution gradient of 5% B to 40% B or 5% B to 30% B over 90 min at 300 nL/min for ERK2 treated experiments or epinephrine treated experiments, respectively. The analytical column was connected to fused silica PicoTip emitter (New Objective, Cambridge, Mass.) with a 10 μm tip orifice and coupled to the mass spectrometer through an electrospray interface.
MS data from each phosphopeptide enriched sample was acquired on a Thermo LTQ-Orbitrap XL mass spectrometer operating in positive-ion mode with an electrospray voltage of 2.0 kV with real-time lockmass correction on ambiant polycyclodimethylsiloxane (m/z 445.120025) enabled. The instrument was set to acquire a precursor MS scan from m/z 400-2000 with r=60,000 at m/z 400 and a target AGC setting of 1e6 ions. Each sample was analyzed four-times, one of which was used for additional qualitative identifications only and was not included in the quantitative analysis, with product ions above a threshold of 500 counts were acquired for the top 5 most intense ions in the linear ion trap. […]

[3] = system: human SS RBC adhesion to vascular endothelium and vaso-occlusion
Procedure: All animal experiments were carried out in accordance with protocols approved by the Duke University Animal Care and Use Committee. Female athymic homozygous nude mice (nu-/nu-) were between 8-12 weeks of age (Charles River Laboratories, Wilmington, Mass.).
General anesthesia was achieved by intra-peritoneal injection of 100 mg/kg of ketamine (Abbott Laboratory, Chicago, Ill.) and 10 mg/kg of xylazine (Bayer, Shawnee Mission, Kans.). A double-sided titanium frame window chamber was surgically implanted into the dorsal skin fold under sterile conditions using a laminar flow hood. Surgery involved carefully removing the epidermal and dermal layers of one side of a dorsal skin fold, exposing the blood vessels of the subcutaneous tissue adjacent to the striated muscles of the opposing skin fold, and then securing the two sides of the chamber to the skin using stainless steel screws and sutures. A glass window was placed in the chamber to cover the exposed tissue and secured with a snap ring. Subsequently, animals were kept at 32-34° C. until in vivo studies were performed 3 days post-surgery.
Murine recombinant TNF-α was dissolved in normal saline at a concentration of 0.1 mg/mL and mice bearing dorsal-skin window chamber implants were given a single intraperitoneal (IP) injection of 20 μg/kg TNF-α and control animals received same volume of normal saline. […] Thirty minutes later, labeled human SS RBCs (300 μl hematocrit (Hct) 50% in PBS with Ca^2+ and Mg^2+) were then infused. […] Animals were placed on the stage of an Axoplan microscope (Carl Zeiss, Thornwood, N.Y.); temperature was maintained at 37° C. using a thermostatically controlled heating pad. […] Microcirculatory events and cell adhesion were simultaneously recorded using a Trinitron Color video monitor (PVM-1353 MD, Sony) and JVC videocassette recorder (BR-53784, VCR King, Durham, N.C.) connected to a digital video camera C2400 (Hamamatsu Photonics K.K., Japan). Arterioles were distinguished from venules based on: 1) observation of divergent flow as opposed to convergent flow; 2) birefringent appearance of vessel walls using transillumination, which is characteristic of arteriolar vascular smooth muscle; and 3) relatively straight vessel trajectory without evidence of tortuosity. Cell adherence was quantitated by considering cells attached to the vessel walls and immobile for 1 minute. The percentage of the length of vessels with diameters≤25 μm or >25 μm, occupied by SS RBCs was quantified as: % venular length occupied by SS RBCs=length of vessel wall with adherent cells/total length of the vessel segments analyzed×100.

ERK1/2 = ERK1/2 from epinephrine-treated SS RBCs, n=4
Procedure: Treated packed SS RBCs were lysed for 20 min at 4° C. with lysis buffer (10 mM EDTA, 20 mM Tris, 110 mM NaCl, pH 7.5) containing 2 mM PMSF, 1% Triton X-100, phosphatase inhibitor cocktail (Sigma) and protease inhibitor cocktail (Sigma). ERK1/2 was immunoprecipitated with anti-ERK1/2 antibody at 4° C., and immune complexes were obtained using protein A-agarose (Amersham Biosciences Corp., Piscataway, N.J.). ERK1/2 immunocomplex was examined for ERK1/2 activity using myelin basic protein (MBP) at 2 mg/ml (Millipore) as a substrate and ATP as a phosphate donor with equal protein amounts per assay condition. For the negative control, an equal volume of water was substituted for ERK1/2 substrate. […] The reaction mixture was incubated for 20 min at 30° C., followed by protein separation and immunoblotting using anti-phosphoMBP mAb (Millipore).

[4] = SS RBCs vs SS RBCs treated with U0126
[5] = 2 mg/kg U0126 in 0.4% DMSO i.v. 30 min prior to RBC infusion
[6] = SS RBCs, epinephrine 30 min vs 1 min

N#CC(=C(/N)Sc1ccccc1N)/C(C#N)=C(\N)Sc1ccccc1N [U0126]
effect on Ser540/Ser542 doubly phosphorylated peptide within protein 4.1 ([1]; AA RBCs treated with U0126): did not induce a decrease
change of Ser540/Ser542 doubly phosphorylated peptide within protein 4.1 ([2]; SS RBCs treated with U0126): −1.7 fold
unique RBC membrane phosphopeptides significantly down-regulated [2, 4]: 36
unique phosphoproteins carrying the down-regulated phosphopeptides [2, 4]: 22
vaso-occlusion ([3]; 0.2 mg/kg U0126 in 0.04% DMSO i.v. 30 minutes prior to RBC infusion): no apparent vaso-occulsion
SS RBC adhesion to vascular endothelium [3, 5]: very little adhesion
vaso-occlusion [3, 5]: no apparent vaso-occlusion
percentage venular length occupied by SS RBCs ([3]; U0126 at 0.2 mg/kg, vessel diameter >25 μm): did not significantly reduce
percentage venular length occupied by SS RBCs ([3]; U0126 at 0.2 and 2 mg/kg, vessels 25 μm in diameter, vs placebo): significant decrease

CNC[C@H](O)c1ccc(O)c(O)c1 [epinephrine]
change in phosphorylation of the CAP1 serine ([1]; AA RBCs, epinephrine 30 min vs 1 min): +1.4 fold
change in phosphorylation of serine 310 within CAP1 [2, 6]: −4.3 fold
change in phosphorylation of threonine 307 within CAP1 [2, 6]: −1.4 fold
MBP phosphorylation by immunoprecipitated ERK1/2, increase vs sham-treated cells (ERK1/2): 2.1±0.3 fold
